# Assay results taken from patent publication US9751853B2, “Solid forms of 3-(5-amino-2-methyl-4-oxo-4H-quinazolin-3-yl)-piperidine-2,6-dione, and their pharmaceutical compositions and uses” (Celgene Corporation, priority 2011, dated 2017).
# Columns and labels:
# [1] = Dynamic Vapor Sorption (moisture sorption); format: physicochemical; conditions: 95% RH, room temperature
# Description: Dynamic Vapor Sorption (DVS): Hygroscopicity was determined on a Surface Measurement Systems DVS. Typically, a sample of about 2-10 mg was loaded into the DVS instrument sample pan. The sample was analyzed on a DVS automated sorption analyzer at room temperature. The relative humidity was increased from 0 to 95% RH at 10% RH step, then at 95% RH. The relative humidity was then decreased in a similar manner to accomplish a full adsorption/desorption cycle.
# [2] = Grinding studies, solid form by XRPD; format: physicochemical
# Description: Grinding Studies: Grinding experiments were performed using a Wig-L-Bug shaker. About 50 mg of Compound A hydrochloride was added to a polystyrene tube (1″×½″) with a Plexi bead (⅜″). The vial was capped and placed on the shaker for about 50 s. For wet grinding, drops of water were added to the vial and a wet paste was formed prior to placing on the shaker.
# X-ray Powder Diffraction (XRPD): XRPD analysis was conducted on a Thermo ARL X'TRA™ X-ray powder diffractometer using Cu Kα radiation at 1.54 Å. The instrument was equipped with a fine focus X-ray tube. The voltage and amperage of X-ray generator were set at 45 kV and 40 mA, respectively. The divergence slices were set at 4 mm and 2 mm and the measuring slices were set at 0.5 mm and 0.2 mm. Diffracted radiation was detected by a peltier-cooled Si(Li) solid-state detector. A theta-two theta continuous scan at 2.40°/min (0.5 sec/0.02° step) from 1.5°2θ to 40°2θ was used. A sintered alumina standard was used to check the peak position. In general, positions of XRPD peaks are expected to individually vary on a measurement-by-measurement basis by about +0.2°2θ. In general, as understood in the art, two XRPD patterns match one another if the characteristic peaks of the first pattern are located at approximately the same positions as the characteristic peaks of the second pattern. As understood in the art, determining whether two XRPD patterns match or whether individual peaks in two XRPD patterns match may require consideration of individual variables and parameters such as, but not limited to, preferred orientation, phase impurities, degree of crystallinity, particle size, variation in diffractometer instrument setup, variation in XRPD data collection parameters, and/or variation in XRPD data processing, among others. The determination of whether two patterns match may be performed by eye and/or by computer analysis.
smiles,measurement,setting,value
"Cc1nc2cccc(N)c2c(=O)n1C1CCC(=O)NC1=O (stereo not shown) [Form C, 3-(5-amino-2-methyl-4-oxo-4H-quinazolin-3-yl)-piperidine-2,6-dione]",Moisture Sorption at 95% RH,[1]; listed as C,0.17 wt %
"Cc1nc2cccc(N)c2c(=O)n1C1CCC(=O)NC1=O (stereo not shown) [Compound A, 3-(5-amino-2-methyl-4-oxo-4H-quinazolin-3-yl)-piperidine-2,6-dione]",Moisture Sorption at 95% RH,[1],3.19 wt %
"Cc1nc2cccc(N)c2c(=O)n1C1CCC(=O)NC1=O (stereo not shown) [Form E, 3-(5-amino-2-methyl-4-oxo-4H-quinazolin-3-yl)-piperidine-2,6-dione]",Moisture Sorption at 95% RH,[1]; listed as E,0.26 wt %
"Cc1nc2cccc(N)c2c(=O)n1C1CCC(=O)NC1=O (stereo not shown) [Form D, 3-(5-amino-2-methyl-4-oxo-4H-quinazolin-3-yl)-piperidine-2,6-dione]",Moisture Sorption at 95% RH,[1]; listed as D,4.11 wt %
"Cc1nc2cccc(N)c2c(=O)n1C1CCC(=O)NC1=O (stereo not shown) [Form B, 3-(5-amino-2-methyl-4-oxo-4H-quinazolin-3-yl)-piperidine-2,6-dione]",Moisture Sorption at 95% RH,[1]; listed as B,0.11 wt %
"Cc1nc2cccc(N)c2c(=O)n1C1CCC(=O)NC1=O (stereo not shown) [Form A, 3-(5-amino-2-methyl-4-oxo-4H-quinazolin-3-yl)-piperidine-2,6-dione]",XRPD Result after grinding,[2]; Dry grinding,Form A1
same,XRPD Result after grinding,[2]; Wet grinding (paste),Form A1
